These results are taken from PMC12951562, “SH2scan: Mapping SH2 Domain-Ligand Binding Selectivity for Inhibitors and Degraders” (Journal of Medicinal Chemistry, 2026).

Experiment in all cases: biochemical
Type in all cases: binding

The target of one test is T1, GRB14 (Homo sapiens, UniProt Q14449).
T1 construct: the DNA-tagged SH2 domain concentrations used in this study were <0.1 nM; made in house; host or cells: HEK293 (transient transfection; unpurified extract)
T1 sequence (Q14449 439-535 limits assumed): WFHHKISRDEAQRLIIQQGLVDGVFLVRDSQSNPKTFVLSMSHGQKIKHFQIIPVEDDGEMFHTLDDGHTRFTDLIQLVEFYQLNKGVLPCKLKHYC
The settings on record: primary screen, 10 μM; read-out: percent of DMSO vehicle control.

The target in the next test is T2, STAT6 (Homo sapiens, UniProt P42226).
T2 construct: made in house; host or cells: HEK293 (transient transfection), unpurified extract
T2 sequence (P42226 1-847): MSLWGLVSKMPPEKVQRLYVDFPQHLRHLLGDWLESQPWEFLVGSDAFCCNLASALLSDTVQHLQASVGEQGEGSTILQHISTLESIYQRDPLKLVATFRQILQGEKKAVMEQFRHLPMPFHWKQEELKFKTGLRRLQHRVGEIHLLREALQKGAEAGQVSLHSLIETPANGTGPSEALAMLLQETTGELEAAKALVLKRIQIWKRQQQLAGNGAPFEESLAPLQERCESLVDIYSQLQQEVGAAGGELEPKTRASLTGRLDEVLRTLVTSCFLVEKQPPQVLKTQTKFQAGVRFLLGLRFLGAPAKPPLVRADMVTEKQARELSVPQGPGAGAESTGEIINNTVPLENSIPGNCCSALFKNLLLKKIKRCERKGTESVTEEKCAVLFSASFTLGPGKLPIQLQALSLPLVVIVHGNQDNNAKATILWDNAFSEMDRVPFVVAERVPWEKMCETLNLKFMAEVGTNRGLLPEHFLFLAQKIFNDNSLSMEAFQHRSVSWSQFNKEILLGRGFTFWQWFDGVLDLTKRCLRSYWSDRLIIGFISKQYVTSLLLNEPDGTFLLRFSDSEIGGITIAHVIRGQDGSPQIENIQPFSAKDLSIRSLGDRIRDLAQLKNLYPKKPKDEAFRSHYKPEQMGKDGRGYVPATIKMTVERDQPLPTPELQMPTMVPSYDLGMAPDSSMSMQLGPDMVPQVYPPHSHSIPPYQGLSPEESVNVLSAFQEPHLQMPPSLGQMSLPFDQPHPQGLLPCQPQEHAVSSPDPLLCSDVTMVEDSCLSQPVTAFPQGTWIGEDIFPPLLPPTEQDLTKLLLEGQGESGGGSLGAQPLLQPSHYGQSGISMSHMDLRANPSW

In a further test the target is T3, CBLC (Homo sapiens, UniProt Q9ULV8).
T3 construct: the DNA-tagged SH2 domain concentrations used in this study were <0.1 nM; made in house; host or cells: HEK293 (transient transfection; unpurified extract)
T3 sequence (Q9ULV8 219-321 limits assumed): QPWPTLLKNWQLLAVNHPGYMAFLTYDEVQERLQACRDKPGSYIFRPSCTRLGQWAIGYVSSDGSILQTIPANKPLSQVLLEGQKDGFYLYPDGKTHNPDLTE

Another test has as its target T4, TEC (Homo sapiens, UniProt P42680).
T4 construct: made in house; host or cells: HEK293 (transient transfection), unpurified extract
T4 sequence (P42680 1-631): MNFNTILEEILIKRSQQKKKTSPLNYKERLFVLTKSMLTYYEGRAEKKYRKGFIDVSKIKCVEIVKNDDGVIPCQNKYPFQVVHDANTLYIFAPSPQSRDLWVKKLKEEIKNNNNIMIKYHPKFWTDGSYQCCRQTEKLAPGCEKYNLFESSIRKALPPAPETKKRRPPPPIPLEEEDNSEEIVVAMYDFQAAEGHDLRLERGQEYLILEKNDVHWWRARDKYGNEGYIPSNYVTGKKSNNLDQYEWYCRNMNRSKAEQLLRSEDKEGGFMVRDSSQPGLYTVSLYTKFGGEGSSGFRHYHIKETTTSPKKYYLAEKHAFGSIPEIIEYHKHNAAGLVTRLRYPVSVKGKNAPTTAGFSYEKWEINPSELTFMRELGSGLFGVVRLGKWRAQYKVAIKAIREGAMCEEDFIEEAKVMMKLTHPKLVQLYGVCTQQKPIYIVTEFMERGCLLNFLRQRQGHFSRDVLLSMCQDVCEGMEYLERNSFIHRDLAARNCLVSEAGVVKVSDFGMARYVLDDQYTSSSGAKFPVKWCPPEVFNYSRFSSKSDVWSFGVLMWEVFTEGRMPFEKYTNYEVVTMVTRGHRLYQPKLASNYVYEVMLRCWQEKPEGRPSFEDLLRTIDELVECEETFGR
The settings on record: primary screen, 10 μM; read-out: percent of DMSO vehicle control.

The target in a further test is T5, GADS (Homo sapiens, UniProt O75791).
T5 construct: the DNA-tagged SH2 domain concentrations used in this study were <0.1 nM; made in house; host or cells: HEK293 (transient transfection; unpurified extract)
T5 sequence (O75791 58-149 limits assumed): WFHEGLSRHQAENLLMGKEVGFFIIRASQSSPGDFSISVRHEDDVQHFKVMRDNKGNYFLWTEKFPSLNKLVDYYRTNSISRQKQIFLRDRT
The settings on record: primary screen, 10 μM; read-out: percent of DMSO vehicle control.

Another test addresses T6, YES (Homo sapiens, UniProt P07947).
T6 construct: the DNA-tagged SH2 domain concentrations used in this study were <0.1 nM; made in house; host or cells: HEK293 (transient transfection; unpurified cell extract)
The settings on record: primary screen, 10 μM; read-out: percent of DMSO vehicle control.

Another test addresses T7, PTPN6(SH2dom.C-term.) (Homo sapiens, UniProt P29350).
T7 construct: SH2dom.C-term. denotes SH2 domain closest to C-terminus of protein; made in house; host or cells: HEK293 (transient transfection, unpurified extract)
T7 sequence (P29350 110-213 limits assumed): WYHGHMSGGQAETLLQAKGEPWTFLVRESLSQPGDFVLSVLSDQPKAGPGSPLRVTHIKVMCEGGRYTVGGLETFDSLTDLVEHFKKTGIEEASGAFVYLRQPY
The settings on record: primary screen, 10 μM; read-out: percent of DMSO vehicle control.

The next test concerns the target T8, SOCS1 (Homo sapiens, UniProt O15524).
T8 construct: made in house; host or cells: HEK293 (transient transfection), unpurified extract
T8 sequence (O15524 1-211): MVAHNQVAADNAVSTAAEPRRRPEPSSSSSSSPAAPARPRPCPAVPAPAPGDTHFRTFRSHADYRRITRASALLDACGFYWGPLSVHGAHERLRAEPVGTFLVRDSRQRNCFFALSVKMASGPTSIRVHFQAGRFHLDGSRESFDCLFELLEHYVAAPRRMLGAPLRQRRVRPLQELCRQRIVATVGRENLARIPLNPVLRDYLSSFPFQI
The settings on record: primary screen, 10 μM; read-out: percent of DMSO vehicle control.

The target of the next test is T9, ABL2 (Homo sapiens, UniProt P42684).
T9 construct: the DNA-tagged SH2 domain concentrations used in this study were <0.1 nM; made in house; host or cells: HEK293 (transient transfection; unpurified extract)
T9 sequence (P42684 173-263 limits assumed): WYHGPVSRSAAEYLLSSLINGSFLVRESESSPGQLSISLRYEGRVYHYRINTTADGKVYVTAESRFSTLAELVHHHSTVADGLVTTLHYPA
The settings on record: primary screen, 10 μM; read-out: percent of DMSO vehicle control.

Where [1] appears, read: primary screen, 10 μM, read-out: percent of DMSO vehicle control.

As usually defined, the Kd is the free concentration of one partner at which half of the binding sites on the other are occupied at equilibrium, for simple one-to-one binding.

The structures appear in SMILES notation.

T6 sequence (P07947 158-255 limits assumed): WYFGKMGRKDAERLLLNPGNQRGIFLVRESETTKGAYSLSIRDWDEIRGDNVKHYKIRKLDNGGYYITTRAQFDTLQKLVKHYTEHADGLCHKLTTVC

For the compound `CC(C)(C)[C@H](NC(=O)/C=C/c1ccc(OP(=O)(O)O)cc1)C(=O)N1CCC[C@H]1C(=O)N(c1ccccc1)c1ccc(I)cc1` [STAT6-IN-3], the remaining activity at 10 µM on GRB14 turned out to be 79.3 ± 7.7%; at STAT6 (setting [1]), 0%; on CBLC (setting [1]), 34.7 ± 1.3%; on TEC it was 136 ± 22.9%; at GADS it was 76.5 ± 7.9%; at YES it was 37.7 ± 27.8%. In addition, the remaining activity at 10 µM at PTPN6(SH2dom.C-term.) was determined as 136 ± 30.6%; at SOCS1, 95.9 ± 35.6%; at ABL2 it was 108 ± 3.5%. Also, the Kd at STAT6 (dose-response, read-out: KD) worked out at 8.6 nM; on CBLC (dose-response, read-out: KD), 2800 ± 520 nM.
